# Read-outs that look alike come from different tables or passages of the source.
# Key:
# [1] = system: C57B/L6; format: in vivo, mice
# [2] = set-up: species or system NSG PANC1 mice; conditions: NSG (Nod/IL2gamma null), mouse, in vivo, po, 10 mg/kg, 1 h
# [3] = female, C57B/L6, mouse, in vivo
# [4] = female, C57B/L6, mouse, in vivo, 3 months
# [5] = male, C57B/L6, mouse, in vivo, 3 months
compound,measurement,setting,value
N=c1c2c(-c3ccccc3)c(-c3ccccc3)n(Cc3ccccc3)c2ncn1[C@H]1CC[C@H](O)CC1 [metarrestin],"Kidney regeneration, tubule",[1]; C57B/L6 Metarrestin Female F03,1/4
same,Brain hemorrhage,[1]; C57B/L6 Metarrestin Male M03,1/4
same,Epididymis aspermia,[1]; C57B/L6 Metarrestin Male M03,1/4
same,"Kidney regeneration, tubule",[1]; C57B/L6 Metarrestin Male M03,3/4
same,"Gall Bladder inflammation, acute",[1]; [3],3/4
same,Ileum segmented filamentous bacteria,[1]; [3],3/4
same,"Adrenal hyperplasia, subcapsular cell",[1]; [4],3/4
same,"Kidney dilatation, tubule",[1]; [4],3/4
same,Kidney infarct,[1]; [4],1/4
same,Kidney mineralization,[1]; [4],2/4
same,"Liver inflammation, subacute",[1]; [4],4/4
same,Lung lymphocytic infiltrate,[1]; [4],4/4
same,"Spleen extramedullary hematopoiesis, erythrocytic, increased erythropoiesis",[1]; [4],2/4
same,Cecum proliferative typhlitis,"[1]; male, C57B/L6, mouse, in vivo",1/4
same,"Femur marrow hyperplasia, granulocytic","[1]; male, C57B/L6, mouse, in vivo",1/4
same,"Gall Bladder inflammation, acute","[1]; male, C57B/L6, mouse, in vivo",3/4
same,Heart mineralization,"[1]; male, C57B/L6, mouse, in vivo",1/4
same,Adrenal lipogenic pigment,[1]; [5],4/4
same,Ileum segmented filamentous bacteria,[1]; [5],3/4
same,"Kidney dilatation, tubule",[1]; [5],2/4
same,Kidney mineralization,[1]; [5],2/4
same,Kidney vacuolation. proximal tubule,[1]; [5],1/4
same,"Liver inflammation, subacute",[1]; [5],3/4
same,Lung lymphocytic infiltrate,[1]; [5],3/4
same,Spleen melanin,[1]; [5],1/4
same,"Testis degeneration, seminiferous tubule",[1]; [5],1/4
same,Thymus cyst,[1]; [5],1/4
same,"Vertebra hyperplasia, granulocytic, marrow",[1]; [5],1/4
same,Concentration in primary tumors above the IC90 of 0.75 μM,[2],more than 10 fold

# Source: US20210186972A1, “FORMULATIONS AND METHODS FOR THE PREVENTION AND TREATMENT OF TUMOR METASTASIS AND TUMORIGENESIS” (THE UNITED STATES OF AMERICA, AS REPRESENTED BY THE …, priority 2018, published 2021)
